The values below come from patent publication US11104690B2, “Indazole derivatives useful as inhibitors of diacylglyceride O-acyltransferase 2” (Merck Sharp & Dohme Corp., priority 2016, dated 2021).

Chain of Human DGAT2 (Q96PD7 whole entry): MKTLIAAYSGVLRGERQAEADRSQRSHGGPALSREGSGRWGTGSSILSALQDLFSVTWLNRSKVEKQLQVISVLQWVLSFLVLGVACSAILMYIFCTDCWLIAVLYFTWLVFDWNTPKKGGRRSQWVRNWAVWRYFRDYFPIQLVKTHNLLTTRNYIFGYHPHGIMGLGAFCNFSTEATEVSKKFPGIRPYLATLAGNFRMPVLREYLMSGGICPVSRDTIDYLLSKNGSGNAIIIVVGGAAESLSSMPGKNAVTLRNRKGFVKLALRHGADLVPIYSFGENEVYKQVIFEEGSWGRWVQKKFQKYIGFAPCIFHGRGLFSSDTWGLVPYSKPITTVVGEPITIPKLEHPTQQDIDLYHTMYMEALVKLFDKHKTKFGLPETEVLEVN

The target of this test is Human DGAT2 (Homo sapiens (Human), UniProt Q96PD7). In words: DGAT2 Enzymatic Activity Assay (triolein formation, LC/MS/MS). The test is classed as biochemical. The note with it: hDGAT2 Sf-9 membrane prep; 25 μM diolein, 10 μM oleoyl-CoA; room temperature. The method, boiled down:
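Membranes from Sf-9 cells infected with untagged hDGAT2 baculovirus, 10 ng/μL, at room temperature in 100 mM Tris.Cl pH 7.0, 20 mM MgCl2, 5% ethanol with 25 μM diolein and 10 μM oleoyl-CoA. Triolein quantified by LC/MS/MS against spiked internal standard; IC50 from 4-parameter sigmoidal fit.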
One may read the IC50 as the concentration needed to halve the response being measured. The low end stands for greater potency in that assay, the high end for weaker potency in that assay. With `CC1(NC(=O)c2ccc3c(-c4cccc(C5CC5)c4)nn(-c4ccc(F)cn4)c3c2)CCS(=O)(=O)C1` (single isomer, unassigned) [Example 125-A, 3-(3-cyclopropylphenyl)-1-(5-fluoropyridin-2-yl)-N-(3-methyl-1,1-dioxidotetrahydrothiophen-3-yl)-1H-indazole-6-carboxamide], the IC50 worked out at 4.2 nM.
Consider `CC1(NC(=O)c2ccc3c(-c4cc(Cl)cc(Cl)c4)nn(-c4ccc(F)cc4)c3c2)CCS(=O)(=O)C1` (single isomer, unassigned) [Example 157-A, 3-(3,5-dichlorophenyl)-1-(4-fluorophenyl)-N-(3-methyl-1,1-dioxidotetrahydrothiophen-3-yl)-1H-indazole-6-carboxamide], for which the IC50 stood at 61 nM.
Compound `O=C(NC1CCS(=O)(=O)C1)c1ccc2c(-c3ccc[n+]([O-])c3)nn(-c3ccc(F)cc3)c2c1` (single isomer, unassigned) [Example 166-A, 3-(6-((1,1-dioxidotetrahydrothiophen-3-yl)carbamoyl)-1-(4-fluorophenyl)-1H-indazol-3-yl)pyridine 1-oxide] returned an IC50 of 843 nM.
The figure for `CC1(NC(=O)c2ccc3c(-c4cc(C(N)=O)ccc4Cl)nn(-c4ccc(F)cc4)c3c2)CCS(=O)(=O)C1` (single isomer, unassigned) [Example 121-B, 3-(5-carbamoyl-2-chlorophenyl)-1-(4-fluorophenyl)-N-(3-methyl-1,1-dioxidotetrahydrothiophen-3-yl)-1H-indazole-6-carboxamide] is 61 nM.
The figure for `CC(C)(NC(=O)c1ccc2c(-c3ccccc3Cl)nn(-c3ccc(F)cc3)c2c1)c1ccc(C(F)(F)F)nc1` [Example 28, 3-(2-chlorophenyl)-1-(4-fluorophenyl)-N-{1-methyl-1-[6-(trifluoromethyl)pyridin-3-yl]ethyl}-1H-indazole-6-carboxamide] is 93 nM; for `O=C(NC1CCS(=O)(=O)C1)c1ccc2c(-c3ccccc3Cl)nn(-c3ccc(F)cn3)c2c1` (single isomer, unassigned) [Example 176-A, 3-(2-chlorophenyl)-N-(1,1-dioxidotetrahydrothiophen-3-yl)-1-(5-fluoropyridin-2-yl)-1H-indazole-6-carboxamide] it is 252 nM.
The figure for `O=C(NCCS(=O)(=O)Nc1ccccc1)c1ccc2c(-c3ccccc3Cl)nn(-c3ccc(F)cc3)c2c1` [Example 56, 3-(2-chlorophenyl)-1-(4-fluorophenyl)-N-[2-(phenylsulfamoyl)ethyl]-1H-indazole-6-carboxamide] is 22 nM; for `O=C(NC1CCS(=O)(=O)C1)c1ccc2c(-c3ccccc3Cl)nn(-c3ccc(F)cc3)c2c1` (single isomer, unassigned) [Example 2-B, 3-(2-chlorophenyl)-N-(1,1-dioxidotetrahydrothiophen-3-yl)-1-(4-fluorophenyl)-1H-indazole-6-carboxamide] it is 303 nM.
In the case of `O=C1CC(NC(=O)c2ccc3c(-c4ccccc4Cl)nn(-c4ccc(F)cc4)c3c2)C1` [Example 104, 3-(2-chlorophenyl)-1-(4-fluorophenyl)-N-(3-oxocyclobutyl)-1H-indazole-6-carboxamide], the IC50 turned out to be 180 nM.
`N#Cc1cccc(-c2nn(-c3ccc(F)cc3)c3cc(C(=O)NC4CCS(=O)(=O)C4)ccc23)c1` (single isomer, unassigned) [Example 129-A] registered an IC50 of 10 nM.
Consider `C[C@H](CO)NC(=O)c1ccc2c(-c3ccccc3Cl)nn(-c3ccc(F)cc3)c2c1` [Example 79, 3-(2-chlorophenyl)-1-(4-fluorophenyl)-N-[(1R)-hydroxy-1-methylethyl]-1H-indazole-6-carboxamide], for which half-maximal inhibition (IC50) required 772 nM.
The figure for `CC1(NC(=O)c2ccc3c(-c4ccccc4Cl)nn(C4CCCCO4)c3c2)CCS(=O)(=O)C1` (centres unmarked) [Example 191, 3-(2-Chlorophenyl)-N-(3-methyl-1,1-dioxidotetrahydrothiophen-3-yl)-1-(tetrahydro-2H-pyran-2-yl)-1H-indazole-6-carboxamide] is 182 nM.
The figure for `C[C@H](NC(=O)c1ccc2c(-c3ccccc3Cl)nn(-c3ccc(F)cc3)c2c1)c1ccc(C(F)(F)F)nc1` [Example 13, 3-(2-chlorophenyl)-1-(4-fluorophenyl)-N-{(1S)-1-[6-(trifluoromethyl)pyridin-3-yl]ethyl}-1H-indazole-6-carboxamide] is 48 nM; for `O=C(NC1CNCCS(=O)(=O)C1)c1ccc2c(-c3ccccc3Cl)nn(-c3ccc(F)cc3)c2c1` (racemic) [Example 102, 3-(2-chlorophenyl)-N-(1,1-dioxido-1,4-thiazepan-6-yl)-1-(4-fluorophenyl)-1H-indazole-6-carboxamide] it is 179 nM.
In the case of `COC(=O)C1(NC(=O)c2ccc3c(-c4ccccc4Cl)nn(-c4ccc(F)cc4)c3c2)CCS(=O)(=O)C1` (racemic) [Example 90, methyl 3-({[3-(2-chlorophenyl)-1-(4-fluorophenyl)-1H-indazol-6-yl]carbonyl}amino)tetra-hydrothiophene-3-carboxylate 1,1-dioxide], the IC50 turned out to be 90 nM.
On to `CC1(NC(=O)c2ccc3c(-c4cccc(C(C)(C)O)c4)nn(-c4ccc(F)cc4)c3c2)CCS(=O)(=O)C1` (racemic) [Example 150, 1-(4-fluorophenyl)-3-[3-(1-hydroxy-1-methylethyl)phenyl]-N-(3-methyl-1,1-dioxidotetrahydrothiophen-3-yl)-1H-indazole-6-carboxamide], for which half-maximal inhibition (IC50) was put at 311 nM.
For `COC[C@H](C)NC(=O)c1ccc2c(-c3ccccc3Cl)nn(-c3ccc(F)cc3)c2c1` [Example 12, 3-(2-chlorophenyl)-1-(4-fluorophenyl)-N-[(1S)-2-methoxy-1-methylethyl]-1H-indazole-6-carboxamide], the IC50 came out at 85 nM.
The figure for `CC(NC(=O)c1ccc2c(-c3ccccc3Cl)nn(-c3ccc(F)cc3)c2c1)c1nncn1C` (racemic) [Example 36, 3-(2-chlorophenyl)-1-(4-fluorophenyl)-N-[1-(4-methyl-4H-1,2,4-triazol-3-yl)ethyl]-1H-indazole-6-carboxamide] is 889 nM.
The figure for `C[C@@H](NC(=O)c1ccc2c(-c3ccccc3Cl)nn(-c3ccc(F)cc3)c2c1)c1cnc(C(F)(F)F)nc1` [Example 4, 3-(2-chlorophenyl)-1-(4-fluorophenyl)-N-{(1R)-1-[2-(trifluoromethyl)pyrimidin-5-yl]ethyl}-1H-indazole-6-carboxamide] is 67 nM; for `CC1(NC(=O)c2ccc3c(-c4cc(C(F)(F)F)ccc4Cl)nn(-c4ccc(F)cc4)c3c2)CCS(=O)(=O)C1` (single isomer, unassigned) [Example 160-A, 3-[2-chloro-5-(trifluoromethyl)phenyl]-1-(4-fluorophenyl)-N-(3-methyl-1,1-dioxidotetrahydrothiophen-3-yl)-1H-indazole-6-carboxamide] it is 6.9 nM; for `NC(=O)c1ccc(Cl)c(-c2nn(-c3ccc(F)cc3)c3cc(C(=O)NC4CCS(=O)(=O)C4)ccc23)c1` (single isomer, unassigned) [Example 122-A, 3-(5-carbamoyl-2-chlorophenyl)-N-(1,1-dioxidotetrahydrothiophen-3-yl)-1-(4-fluorophenyl)-1H-indazole-6-carboxamide] it is 96 nM.
The value for `Cc1cccc(-c2nn(-c3ccc(F)cc3)c3cc(C(=O)NC4(C)CCS(=O)(=O)C4)ccc23)c1` (single isomer, unassigned) [Example 156-A, 1-(4-fluorophenyl)-N-(3-methyl-1,1-dioxidotetrahydrothiophen-3-yl)-3-(3-methylphenyl)-1H-indazole-6-carboxamide] was 11 nM.
In the case of `CC(C)[C@H](NC(=O)c1ccc2c(-c3ccccc3Cl)nn(-c3ccc(F)cc3)c2c1)C(N)=O` [Example 95, N-[(1S)-1-carbamoyl-2-methylpropyl]-3-(2-chlorophenyl)-1-(4-fluorophenyl)-1H-indazole-6-carboxamide], the IC50 amounted to 606 nM.
The figure for `CC1(NC(=O)c2ccc3c(-c4cccc(OCC(F)(F)F)c4)nn(-c4ccc(F)cc4)c3c2)CCS(=O)(=O)C1` (single isomer, unassigned) [Example 147-A, 1-(4-fluorophenyl)-N-(3-methyl-1,1-dioxidotetrahydrothiophen-3-yl)-3-[3-(2,2,2-trifluoroethoxy)phenyl]-1H-indazole-6-carboxamide] is 5.7 nM; for `O=C(NC(CCN1CCOCC1)c1ccccc1)c1ccc2c(-c3ccccc3Cl)nn(-c3ccc(F)cc3)c2c1` (racemic) [Example 109, 3-(2-chlorophenyl)-1-(4-fluorophenyl)-N-(3-morpholin-4-yl-1-phenylpropyl)-1H-indazole-6-carboxamide] it is 532 nM; for `N#Cc1ccc(Cl)c(-c2nn(-c3ccc(F)cc3)c3cc(C(=O)NC4(CO)CCC4)ccc23)c1` [Example 118, 3-(2-chloro-5-cyanophenyl)-1-(4-fluorophenyl)-N-[1-(hydroxymethyl)cyclobutyl]-1H-indazole-6-carboxamide] it is 5.5 nM.
The figure for `O=C(NC1CCS(=O)(=O)C1)c1ccc2c(-c3ccccc3Cl)nn(Cc3ccc(Cl)cc3)c2c1` (centres unmarked) [Example 168, 1-(4-chlorobenzyl)-3-(2-chlorophenyl)-N-(1,1-dioxidotetrahydrothiophen-3-yl)-1H-indazole-6-carboxamide] is 455 nM; for `O=C(NCCS(=O)(=O)NCc1ccccc1)c1ccc2c(-c3ccccc3Cl)nn(-c3ccc(F)cc3)c2c1` [Example 54, N-[2-(benzylsulfamoyl)ethyl]-3-(2-chlorophenyl)-1-(4-fluorophenyl)-1H-indazole-6-carboxamide] it is 121 nM; for `O=C(NCc1ccncc1)c1ccc2c(-c3ccccc3Cl)nn(-c3ccc(F)cc3)c2c1` [Example 33, 3-(2-chlorophenyl)-1-(4-fluorophenyl)-N-(pyridin-4-ylmethyl)-1H-indazole-6-carboxamide] it is 654 nM.
